Assay results as given in US5834032A, “Compositions and methods for treating diabetes” (priority 1997, dated 1998).

Tests used:
Type in all cases: in vivo, rat
diabetic rats [1] = experiment: Water consumption by diabetic rats during administration of chemicals in drinking water (Example 2); settings: Table 8
Source text: (§1) Rats were first made diabetic by injection with streptozotocin, and then allowed to stabilize for a period of two weeks. […] After the two week period, the surviving diabetic rats were divided into seven groups and provided either with plain drinking water as a control, or drinking water containing one of six compositions to be tested for their effects on various parameters associated with the diabetic condition. Constituents included in these compositions, in varying combinations, were: zinc (20 mg/L); L-histidine (20 mg/L); arachidonic acid (100 mg/L); testosterone (100 mg/L); and C-Hispro (10 mg/L).
(§2) Diabetic rats receiving one of the six test compositions or control drinking water were monitored for blood glucose concentration, body weight and water consumption over a period of about one month. Values for these parameters were plotted on a graph, and a regression line drawn. […] Thus, if the blood glucose concentration increased substantially steadily over the course of the experiment, the slope of the regression line was reported along with the number of days duration during which the change was monitored.

diabetic rats [2] = experiment: Optimizing the level of C-Hispro intake for improving diabetes (blood glucose); settings: for Mean mg glucose/dL after Tmt / Mean mg glucose/dL before Tmt: 10 mg Zn/L in drinking water; for Changes of mg glucose/dL: 10 mg Zn/L, decrease
Method: The results presented in Table 9 were used to determine the optimal concentration of C-Hispro useful for improving the symptoms associated with diabetes. Since rats consuming water containing C-Hispro ad libitum also consumed the lowest water volume as evidenced by the results in Table 8, the optimal concentration of C-Hispro for improving the symptoms of diabetes was determined by providing animals with water containing different concentrations of c-Hispro. The amounts of consumed were determined by measuring the amount of water consumed, dividing this value by the weight of the rat and multiplying the result by the c-Hispro concentration. The amount of C-Hispro intake for the most dramatic improvement of symptoms of diabetes was about 300 μg/kg/day, based on the results presented in Tables 9 and 10. […] Similar ranges of dosages also are expected to be useful for treating diabetic mammals, including humans.

diabetic rats [3] = experiment: Blood glucose in diabetic rats administered arachidonic acid and 0.5 mg/kg/day L-histidine (dose optimisation)
Method: In the experiment used to produce the results presented in Table 11, the concentration of AA was varied and the L-histidine concentration was held constant. Thus, a range of from 3-30 mg/kg/day of AA provided a therapeutic benefit, with a range of from 10-12 mg/kg/day of AA providing the greatest benefit.

diabetic rats [4] = experiment: Blood glucose concentration changes (regression slope) during dietary feeding of defined chemical species (Example 2); settings: Table 6
Source text: as §1, §2

[5] = C-Hispro intake 217 to 231 μg/kg, restricted water intake
[6] = C-Hispro intake 281 to 290 μg/kg, unrestricted water intake
[7] = C-Hispro intake 303 to 337 μg/kg, restricted water intake
[8] = C-Hispro intake 386 to 466 μg/kg, unrestricted water intake
[9] = C-Hispro intake 448 to 463 μg/kg, restricted water intake
[10] = C-Hispro intake 452 to 554 μg/kg, unrestricted water intake
[11] = C-Hispro intake 554 to 597 μg/kg, restricted water intake
[12] = C-Hispro intake 569 to 680 μg/kg, unrestricted water intake
[13] = arachidonic acid 2.02 to 2.39 mg/kg/day, plus 0.5 mg/kg/day L-histidine
[14] = arachidonic acid 3.04 to 3.58 mg/kg/day, plus 0.5 mg/kg/day L-histidine
[15] = arachidonic acid 4.05 to 4.78 mg/kg/day, plus 0.5 mg/kg/day L-histidine
[16] = arachidonic acid 5.06 to 5.97 mg/kg/day, plus 0.5 mg/kg/day L-histidine
[17] = arachidonic acid 10.12 to 11.95 mg/kg/day, plus 0.5 mg/kg/day L-histidine
[18] = arachidonic acid 15.18 to 17.91 mg/kg/day, plus 0.5 mg/kg/day L-histidine
[19] = arachidonic acid 20.24 to 23.88 mg/kg/day, plus 0.5 mg/kg/day L-histidine
[20] = arachidonic acid 25.30 to 29.85 mg/kg/day, plus 0.5 mg/kg/day L-histidine
[21] = arachidonic acid 0 mg/kg/day, 0.5 mg/kg/day L-histidine

Compound: O=C1N[C@@H](Cc2cnc[nH]2)C(=O)N2CCC[C@@H]12 [C-Hispro, cyclo-Hispro]
- water consumption compared to the other groups (diabetic rats [1]): lower than in the other groups tested
- Mean mg glucose/dL after Tmt (diabetic rats [2]; [5]): 213 ± 43 mg glucose/dL
- Mean mg glucose/dL before Tmt (diabetic rats [2]; [5]): 372 ± 33 mg glucose/dL
- Changes of mg glucose/dL (diabetic rats [2]; [5]): 159 ± 45 mg glucose/dL
- Mean mg glucose/dL after Tmt (diabetic rats [2]; [6]): 258 ± 27 mg glucose/dL
- Mean mg glucose/dL before Tmt (diabetic rats [2]; [6]): 373 ± 30 mg glucose/dL
- Changes of mg glucose/dL (diabetic rats [2]; [6]): 115 ± 33 mg glucose/dL
- Mean mg glucose/dL after Tmt (diabetic rats [2]; [7]): 192 ± 28 mg glucose/dL
- Mean mg glucose/dL before Tmt (diabetic rats [2]; [7]): 422 ± 27 mg glucose/dL
- Changes of mg glucose/dL (diabetic rats [2]; [7]): 230 ± 14 mg glucose/dL
- Mean mg glucose/dL after Tmt (diabetic rats [2]; [8]): 353 ± 37 mg glucose/dL
- Mean mg glucose/dL before Tmt (diabetic rats [2]; [8]): 411 ± 22 mg glucose/dL
- Changes of mg glucose/dL (diabetic rats [2]; [8]): 58 ± 47 mg glucose/dL
- Mean mg glucose/dL after Tmt (diabetic rats [2]; [9]): 216 ± 23 mg glucose/dL
- Mean mg glucose/dL before Tmt (diabetic rats [2]; [9]): 342 ± 20 mg glucose/dL
- Changes of mg glucose/dL (diabetic rats [2]; [9]): 126 ± 34 mg glucose/dL
- Mean mg glucose/dL after Tmt (diabetic rats [2]; [10]): 367 ± 47 mg glucose/dL
- Mean mg glucose/dL before Tmt (diabetic rats [2]; [10]): 417 ± 8 mg glucose/dL
- Changes of mg glucose/dL (diabetic rats [2]; [10]): 50 ± 41 mg glucose/dL
- Mean mg glucose/dL after Tmt (diabetic rats [2]; [11]): 221 ± 12 mg glucose/dL
- Mean mg glucose/dL before Tmt (diabetic rats [2]; [11]): 314 ± 24 mg glucose/dL
- Changes of mg glucose/dL (diabetic rats [2]; [11]): 93 ± 32 mg glucose/dL
- Mean mg glucose/dL after Tmt (diabetic rats [2]; [12]): 314 ± 20 mg glucose/dL
- Mean mg glucose/dL before Tmt (diabetic rats [2]; [12]): 359 ± 46 mg glucose/dL
- Changes of mg glucose/dL (diabetic rats [2]; [12]): 45 ± 16 mg glucose/dL
- amount of C-Hispro intake for the most dramatic improvement of symptoms of diabetes (diabetic rats [2]; based on Tables 9 and 10): about 300 μg/kg/day

Compound: CCCCC/C=C\C/C=C\C/C=C\C/C=C\CCCC(=O)O [arachidonic acid]
- range of AA providing the greatest benefit (diabetic rats [3]; L-histidine held constant): 10 to 12 mg/kg/day
- range of AA that provided a therapeutic benefit (diabetic rats [3]; L-histidine held constant): 3 to 30 mg/kg/day
- optimal amount of AA for improving the symptoms of diabetes in rats (diabetic rats [3]; L-histidine held constant (0.5 mg/kg/day)): about 10 mg/kg/day
- mg glu/dL Post-Treatment (diabetic rats [3]; [13]): 321 ± 34 mg glu/dL
- mg glu/dL Pre-Treatment (diabetic rats [3]; [13]): 263 ± 48 mg glu/dL
- mg glu/dL improvement (diabetic rats [3]; [13]): -58 ± 16 mg glu/dL
- mg glu/dL Post-Treatment (diabetic rats [3]; [14]): 256 ± 25 mg glu/dL
- mg glu/dL Pre-Treatment (diabetic rats [3]; [14]): 303 ± 23 mg glu/dL
- mg glu/dL improvement (diabetic rats [3]; [14]): 47 ± 26 mg glu/dL
- mg glu/dL Post-Treatment (diabetic rats [3]; [15]): 247 ± 32 mg glu/dL
- mg glu/dL Pre-Treatment (diabetic rats [3]; [15]): 308 ± 17 mg glu/dL
- mg glu/dL improvement (diabetic rats [3]; [15]): 61 ± 43 mg glu/dL
- mg glu/dL Post-Treatment (diabetic rats [3]; [16]): 252 ± 29 mg glu/dL
- mg glu/dL Pre-Treatment (diabetic rats [3]; [16]): 426 ± 56 mg glu/dL
- mg glu/dL improvement (diabetic rats [3]; [16]): 174 ± 53 mg glu/dL
- mg glu/dL Post-Treatment (diabetic rats [3]; [17]): 187 ± 15 mg glu/dL
- mg glu/dL Pre-Treatment (diabetic rats [3]; [17]): 393 ± 23 mg glu/dL
- mg glu/dL improvement (diabetic rats [3]; [17]): 206 ± 25 mg glu/dL
- mg glu/dL Post-Treatment (diabetic rats [3]; [18]): 184 ± 16 mg glu/dL
- mg glu/dL Pre-Treatment (diabetic rats [3]; [18]): 368 ± 25 mg glu/dL
- mg glu/dL improvement (diabetic rats [3]; [18]): 184 ± 30 mg glu/dL
- mg glu/dL Post-Treatment (diabetic rats [3]; [19]): 241 ± 18 mg glu/dL
- mg glu/dL Pre-Treatment (diabetic rats [3]; [19]): 379 ± 25 mg glu/dL
- mg glu/dL improvement (diabetic rats [3]; [19]): 138 ± 33 mg glu/dL
- mg glu/dL Post-Treatment (diabetic rats [3]; [20]): 301 ± 27 mg glu/dL
- mg glu/dL Pre-Treatment (diabetic rats [3]; [20]): 443 ± 52 mg glu/dL
- mg glu/dL improvement (diabetic rats [3]; [20]): 142 ± 66 mg glu/dL

Compound: N[C@@H](Cc1c[nH]cn1)C(=O)O [L-Histidine, L-histidine]
- effect of L-histidine in the drinking water on diabetes (diabetic rats [3]; 0.5 mg/kg L-histidine): improved diabetes
- mg glu/dL Post-Treatment (diabetic rats [3]; [21]): 304 ± 50 mg glu/dL
- mg glu/dL Pre-Treatment (diabetic rats [3]; [21]): 204 ± 22 mg glu/dL
- mg glu/dL improvement (diabetic rats [3]; arachidonic acid 0 mg/kg/day, 0.5 mg/kg/day L-histidine, negative = increase): -100 ± 62 mg glu/dL

Compound: C[C@]12CC[C@H]3[C@@H](CCC4=CC(=O)CC[C@@]43C)[C@@H]1CC[C@@H]2O [testosterone]
- benefit of including testosterone in the composition (diabetic rats [4]): no apparent benefit
